Assay results from US20250296971A1, “GASTRIC INHIBITORY PEPTIDE RECEPTOR LIGANDS” (priority 2021, published 2025).
Read-outs that look alike come from different tables or passages of the source. *1 amine or outer side, *2 acyl side, *3 side chain or, on linkers, in order; H or OH if unused. Where a SMILES comes first, the peptide text is derived from it. Bridges are numbered along the chain shown (N, C = ends). Side-chain parts run from the residue outwards. [ ]: non-standard residue; d: D form. The star is where a group is joined. NH(1-deoxy-D-glucityl) = OC[C@@H](O)[C@@H](O)[C@H](O)[C@@H](O)CN*; DOTA = O=C(O)CN1CCN(CC(=O)O)CCN(CC(=O)*)CCN(CC(=O)O)CC1; Trp(5-Cl) = N[C@@H](Cc1c[nH]c2ccc(Cl)cc12)C(=O)O; Pyridine(2,6-diCH2) = c1cc(C[*:1])nc(C[*:2])c1; mXylylene = c1cc(C[*:1])cc(C[*:2])c1; Glutaryl = O=C(CCCC(=O)[*:2])[*:1]; Hyp = O=C(O)[C@@H]1C[C@@H](O)CN1; X1 = O=C(CN1CCC(N[*:1])CC1)[*:2]; Api = NC1(C(=O)O)CCNCC1

Legend:
[1] = molecular target: T1, GIPR (CHO-K1-hGIPR cells) (Homo sapiens, UniProt P48546); experiment: FACS binding assay
T1 construct: host or cells: CHO-K1
T1 sequence (P48546 22-466): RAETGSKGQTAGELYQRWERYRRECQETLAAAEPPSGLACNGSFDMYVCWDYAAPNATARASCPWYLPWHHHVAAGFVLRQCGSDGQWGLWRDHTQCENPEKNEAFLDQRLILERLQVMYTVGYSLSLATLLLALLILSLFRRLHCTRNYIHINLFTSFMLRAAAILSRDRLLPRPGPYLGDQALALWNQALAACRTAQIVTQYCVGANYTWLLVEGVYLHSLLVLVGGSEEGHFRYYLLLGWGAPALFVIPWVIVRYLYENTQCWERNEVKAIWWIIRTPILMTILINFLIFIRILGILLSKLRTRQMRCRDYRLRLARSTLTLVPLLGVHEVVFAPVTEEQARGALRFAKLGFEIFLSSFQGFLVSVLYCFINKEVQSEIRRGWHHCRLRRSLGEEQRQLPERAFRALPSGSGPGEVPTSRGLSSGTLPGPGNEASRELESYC
Summary of the method: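 Steps: detach CHO-K1-hGIPR cells (Accutase); wash in PBS/1% FCS; adjust to 500.000 cells per mL; wash ice-cold; incubate APC-streptavidin 1 μg/mL, 30 min on ice; wash twice; acquire on flow cytometer; fit MFI-concentration data with a four-parameter logistic model.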

[2] = molecular target: Recombinant soluble human NEP (Homo sapiens, UniProt P08473); experiment: Proteolytic stability assay against NEP; conditions: NEP 100 ng/mL, compound 10 μM, 37° C., % intact compound remaining
Recombinant soluble human NEP, sequence (P08473 52-750 limits assumed): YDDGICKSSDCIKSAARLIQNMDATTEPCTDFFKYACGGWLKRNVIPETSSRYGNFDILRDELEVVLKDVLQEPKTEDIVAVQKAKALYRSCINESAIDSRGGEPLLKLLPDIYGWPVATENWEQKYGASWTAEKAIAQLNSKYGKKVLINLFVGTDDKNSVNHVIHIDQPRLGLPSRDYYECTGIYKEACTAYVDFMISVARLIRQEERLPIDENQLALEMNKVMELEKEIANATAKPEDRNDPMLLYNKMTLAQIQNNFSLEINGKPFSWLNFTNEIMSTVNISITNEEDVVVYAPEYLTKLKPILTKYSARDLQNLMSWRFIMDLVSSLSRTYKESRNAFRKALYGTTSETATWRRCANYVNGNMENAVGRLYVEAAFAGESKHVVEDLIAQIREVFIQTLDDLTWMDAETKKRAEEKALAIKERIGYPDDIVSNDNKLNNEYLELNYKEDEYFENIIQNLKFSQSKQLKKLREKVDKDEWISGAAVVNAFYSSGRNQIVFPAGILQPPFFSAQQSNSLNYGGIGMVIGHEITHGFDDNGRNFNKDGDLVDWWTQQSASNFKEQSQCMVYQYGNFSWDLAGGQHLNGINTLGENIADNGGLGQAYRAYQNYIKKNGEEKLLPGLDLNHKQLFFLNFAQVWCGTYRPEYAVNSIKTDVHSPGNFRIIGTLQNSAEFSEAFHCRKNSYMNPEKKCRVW

[3] = Plasma stability assay, mouse plasma; type: in vitro ADME; conditions: 37° C., % intact compound remaining after 4 h or 24 h
Procedure: (§1) In order to determine the stability of selected compounds of the invention in human and mouse plasma, a plasma stability assay was carried out. Such plasma stability assay measures degradation of compounds of the present invention in blood plasma. This is an important characteristic of a compound as compounds, with the exception of pro-drugs, which rapidly degrade in plasma, generally show poor in vivo efficacy. […] The stability is sufficient for the diagnostic, therapeutic and theragnostic use of these compounds according to the present invention.
(§2) The plasma stability samples were prepared by spiking 50 μL plasma aliquots (all K2EDTA) with 1 μL of a 0.5 mM compound stock solution in DMS0. After vortexing the samples were incubated in a Thermomixer at 37° C. for 0, 4 and 24 hours. After incubation the samples were stored on ice until further treatment. All samples were prepared in duplicates.
(§3) A suitable internal standard was added to each sample (1 μL of a 0.5 mM stock solution in DMSO). Protein precipitation was performed by addition of 250 μL of acetonitrile containing 1% trifluoroacetic acid. After incubation at room temperature for 30 min the precipitate was separated by centrifugation and 150 μL of the supernatant was diluted with 150 μL of 1% aqueous formic acid.
(§4) Additionally, recovery was determined by spiking a pure plasma sample that only contained the internal standard after treatment with a certain amount of the compound.
(§5) Carry-over was evaluated by analysis of a blank sample (20% acetonitrile) after the highest calibration sample.

[4] = Plasma stability assay, human plasma; type: in vitro ADME; conditions: 37° C., % intact compound remaining after 4 h or 24 h
Procedure: as §1, §2, §3, §4, §5

[5] = competition with 20 nM GIP-057, 4° C., 1 hour, read-out: pIC50 Category (converted)
[6] = competition with 20 nM GIP-057, 4° C. for 1 hour, read-out: pIC50 Category (converted)

Row | SMILES | IC50 [1, 5] [nM] | Mouse plasma stability category [3] | Human plasma stability category [4] | IC50 [1, 6] [nM] | NEP stability category [2] | IC50 ([1]; pIC50 Category, competition with 20 nM GIP-057, 4° C., 1 hour) [nM]
1 | CC[C@H](C)[C@@H]1NC(=O)[C@H](CC(C)C)NC(=O)C2(CCN(C(=O)CCCC(=O)NC[C@H](O)[C@@H](O)[C@H](O)[C@H](O)CO)CC2)NC(=O)[C@@H](NC(=O)[C@@H](CC(C)C)NC(=O)[C@H](CCC(=O)O)NC(=O)[C@@H]2C[C@@H](O)CN2C(=O)[C@H](Cc2c[nH]c3ccc(Cl)cc23)NC(=O)[C@H](Cc2c[nH]c3ccccc23)NC(=O)[C@H](CC(=O)O)NC(=O)CN2CCC(NC(=O)[C@@H](CCC(=O)NC[C@H](O)[C@@H](O)[C@H](O)[C@H](O)CO)NC(=O)CN3CCN(CC(=O)O)CCN(CC(=O)O)CCN(CC(=O)O)CC3)CC2)CSCc2cccc(n2)CSC[C@@H](C(=O)NC2CCN(CC(=O)N[C@H](CCC(=O)NC[C@H](O)[C@@H](O)[C@H](O)[C@H](O)CO)C(N)=O)CC2)NC1=O [GIP-003, DOTA-glu(AGLU)-APAc-Asp-Trp-5Clw-Hyp-Glu-leu-[Cys(2Lut)-Apc(AGLU-Glutar)-Leu-Ile-Cys]-APAc-glu(AGLU)-NH2] ({DOTA}-[dE](NH(1-deoxy-D-glucityl))[X1]DW[Trp(5-Cl)][Hyp]E[dL]C[Api]([Glutaryl-NH(1-deoxy-D-glucityl)])LIC[X1][dE](NH(1-deoxy-D-glucityl))-NH2; linker 9-13 via Pyridine(2,6-diCH2)) | < 10 | – | – | – | A (>80% intact after 24 hours) | –
2 | CC[C@H](C)[C@@H]1NC(=O)[C@H](CC(C)C)NC(=O)C2(CCN(C(=O)CN3CCN(CC(=O)O)CCN(CC(=O)O)CCN(CC(=O)O)CC3)CC2)NC(=O)[C@@H](NC(=O)[C@@H](CC(C)C)NC(=O)[C@H](CCC(=O)O)NC(=O)[C@@H]2C[C@@H](O)CN2C(=O)[C@H](Cc2c[nH]c3ccc(Cl)cc23)NC(=O)[C@H](Cc2c[nH]c3ccccc23)NC(=O)[C@H](CC(=O)O)NC(=O)CN2CCC(NC(=O)CCOCCOCCOCCOCCOCCOCCOCCOCCOCCOCCOCCOCCOCCOCCOCCOCCOCCOCCOCCOCCOCCOCCOCCOCCOCCOCCOCCOCCOCCOCCOCCOCCOCCOCCOCCOCCOC)CC2)CSCc2cccc(n2)CSC[C@@H](C(=O)N[C@H](CCC(=O)NC[C@H](O)[C@@H](O)[C@H](O)[C@H](O)CO)C(N)=O)NC1=O [GIP-040, Me036PEG-APAc-Asp-Trp-5Clw-Hyp-Glu-leu-[Cys(2Lut)-Apc(DOTA)-Leu-Ile-Cys]-glu(AGLU)-NH2] | – | – | – | – | A (>80% intact after 24 hours) | 10 to 79.4
3 | CC[C@H](C)[C@@H]1NC(=O)[C@H](CC(C)C)NC(=O)[C@H](C)NC(=O)[C@@H](NC(=O)[C@H](CC(C)C)NC(=O)[C@H](CCC(=O)O)NC(=O)[C@@H]2CCCN2C(=O)[C@H](Cc2c[nH]c3ccccc23)NC(=O)[C@H](Cc2c[nH]c3ccccc23)NC(=O)[C@H](CC(=O)O)NC(=O)[C@H](Cc2ccc(O)cc2)NC(C)=O)CSCc2cccc(c2)CSC[C@@H](C(N)=O)NC1=O [GIP-240, Ac-Tyr-Asp-Trp-Trp-Pro-Glu-Leu-[Cys(3MeBn)-Ala-Leu-Ile-Cys]-NH2] (Ac-YDWWPELCALIC-NH2; linker 8-12 via mXylylene) | 10 to 79.4 | B (>80% intact after 4 hours) | B (>80% intact after 4 hours) | – | – | –
4 | CC[C@H](C)[C@@H]1NC(=O)[C@H](CC(C)C)NC(=O)[C@H]([C@@H](C)O)NC(=O)[C@@H](NC(=O)[C@H](CC(C)C)NC(=O)[C@H](CCC(=O)O)NC(=O)[C@@H]2CCCN2C(=O)[C@H](Cc2c[nH]c3ccccc23)NC(=O)[C@H](Cc2c[nH]c3ccccc23)NC(=O)[C@H](CC(=O)O)NC(=O)[C@H](Cc2ccc(O)cc2)NC(=O)[C@@H](N)CCSC)CSCc2cccc(c2)CSC[C@@H](C(N)=O)NC1=O [GIP-242] (H-MYDWWPELCTLIC-NH2; linker 9-13 via mXylylene) | 10 to 79.4 | C (≥50% intact after 4 hours) | B (>80% intact after 4 hours) | – | – | –
5 | CC[C@H](C)[C@@H]1NC(=O)[C@H](CC(C)C)NC(=O)[C@H](C)NC(=O)[C@@H](NC(=O)[C@H](CC(C)C)NC(=O)[C@@H](CCC(=O)O)NC(=O)[C@@H]2CCCN2C(=O)[C@H](Cc2c[nH]c3ccccc23)NC(=O)[C@H](Cc2c[nH]c3ccccc23)NC(=O)[C@H](CC(=O)O)NC(=O)[C@H](Cc2ccc(O)cc2)NC(=O)[C@@H](N)CCSC)CSCc2cccc(c2)CSC[C@@H](C(N)=O)NC1=O [GIP-245, H-Met-Tyr-Asp-Trp-Trp-Pro-glu-Leu-[Cys(3MeBn)-Ala-Leu-Ile-Cys]-NH2] (H-MYDWWP[dE]LCALIC-NH2; linker 9-13 via mXylylene) | – | D (<50% intact after 4 hours) | B (>80% intact after 4 hours) | 10 to 79.4 | – | –

Continued, in another order:

Row | IC50 [1, 5] [nM] | Mouse plasma stability category [3] | Human plasma stability category [4] | IC50 [1, 6] [nM] | SMILES | NEP stability category [2] | IC50 ([1]; pIC50 Category, competition with 20 nM GIP-057, 4° C., 1 hour) [nM]
6 | 10 to 79.4 | C (≥50% intact after 4 hours) | B (>80% intact after 4 hours) | – | CC[C@H](C)[C@@H]1NC(=O)[C@H](CC(C)C)NC(=O)[C@H](CCC(N)=O)NC(=O)[C@@H](NC(=O)[C@H](CC(C)C)NC(=O)[C@H](CCC(=O)O)NC(=O)[C@@H]2CCCN2C(=O)[C@H](Cc2c[nH]c3ccccc23)NC(=O)[C@H](Cc2c[nH]c3ccccc23)NC(=O)[C@H](CC(=O)O)NC(=O)[C@H](Cc2ccc(O)cc2)NC(=O)[C@@H](N)CCSC)CSCc2cccc(c2)CSC[C@@H](C(N)=O)NC1=O [GIP-241] (H-MYDWWPELCQLIC-NH2; linker 9-13 via mXylylene) | – | –
7 | – | B (>80% intact after 4 hours) | B (>80% intact after 4 hours) | 10 to 79.4 | CC[C@H](C)[C@@H]1NC(=O)[C@H](CC(C)C)NC(=O)[C@H](C)NC(=O)[C@@H](NC(=O)[C@H](CC(C)C)NC(=O)[C@H](CCC(=O)O)NC(=O)[C@@H]2CCCN2C(=O)[C@H](Cc2c[nH]c3ccccc23)NC(=O)[C@H](Cc2c[nH]c3ccccc23)NC(=O)[C@H](CC(=O)O)NC(=O)[C@@H](Cc2ccc(O)cc2)NC(=O)[C@@H](N)CCSC)CSCc2cccc(c2)CSC[C@@H](C(N)=O)NC1=O [GIP-246, H-Met-tyr-Asp-Trp-Trp-Pro-Glu-Leu-[Cys(3MeBn)-Ala-Leu-Ile-Cys]-NH2] (H-M[dY]DWWPELCALIC-NH2; linker 9-13 via mXylylene) | – | –
8 | – | D (<50% intact after 4 hours) | C (≥50% intact after 4 hours) | 10 to 79.4 | CC[C@H](C)[C@@H]1NC(=O)[C@H](CC(C)C)NC(=O)[C@H](C)NC(=O)[C@@H](NC(=O)[C@@H](CC(C)C)NC(=O)[C@H](CCC(=O)O)NC(=O)[C@@H]2CCCN2C(=O)[C@H](Cc2c[nH]c3ccccc23)NC(=O)[C@H](Cc2c[nH]c3ccccc23)NC(=O)[C@H](CC(=O)O)NC(=O)[C@H](Cc2ccc(O)cc2)NC(=O)[C@@H](N)CCSC)CSCc2cccc(c2)CSC[C@@H](C(N)=O)NC1=O [GIP-247, H-Met-Tyr-Asp-Trp-Trp-Pro-Glu-leu-[Cys(3MeBn)-Ala-Leu-Ile-Cys]-NH2] (H-MYDWWPE[dL]CALIC-NH2; linker 9-13 via mXylylene) | – | –
9 | – | D (<50% intact after 4 hours) | B (>80% intact after 4 hours) | 10 to 79.4 | CC[C@H](C)[C@@H]1NC(=O)[C@H](CC(C)C)NC(=O)[C@@H](C)NC(=O)[C@@H](NC(=O)[C@H](CC(C)C)NC(=O)[C@H](CCC(=O)O)NC(=O)[C@@H]2CCCN2C(=O)[C@H](Cc2c[nH]c3ccccc23)NC(=O)[C@H](Cc2c[nH]c3ccccc23)NC(=O)[C@H](CC(=O)O)NC(=O)[C@H](Cc2ccc(O)cc2)NC(=O)[C@@H](N)CCSC)CSCc2cccc(c2)CSC[C@@H](C(N)=O)NC1=O [GIP-248] (H-MYDWWPELC[dA]LIC-NH2; linker 9-13 via mXylylene) | – | –
